Data published in PMC5099944, “Design, synthesis and biological evaluation of hybrids of β-carboline and salicylic acid as potential anticancer and apoptosis inducing agents” (Scientific Reports, 2016).

Columns and labels:
EJ cells = experiment: MTT assay, proliferation of EJ cells; format: cell-based; conditions: 48 h, EJ human bladder carcinoma cells, read-out: In vitro cytotoxicity (IC50) EJ
Experimental: The in vitro antitumor activities of the synthesized compounds 7a-l and 8a-l against five human cancer cells were evaluated in MTT assays using 5-fluorouracil (5-FU) and harmine as positive controls. These cells are human hepatocellular carcinoma cells (SMMC-7721 and Hep G2), human colon cancer cell lines (HCT116), human bladder carcinoma cells (EJ), and human lung cancer cells (H460).
(§1) Hepatocellular carcinoma cells (SMMC-7721 and Hep G2), Human colon cancer cell lines (HCT116), human bladder carcinoma cells (EJ) or human lung cancer cells (H460) at 10^4 cells per well were cultured in 10% FBS DMEM in 96-well flat-bottom microplates overnight. The cells were incubated in triplicate with, or without, different concentrations of each test compound for 48 h. During the last 4 h incubation, 30 μL of tetrazolium dye (MTT) solution (5 mg mL^−1) was added to each well. The resulting MTT-formazan crystals were dissolved in 150 μL DMSO, and absorbance was measured spectrophotometrically at 570 nm using an ELISA plate reader. The inhibition induced by each test compound at the indicated concentrations was expressed as a percentage. The concentration required for 50% inhibition (IC50) was calculated using the software (GraphPadPrism Version 4.03).

LO2 cells = experiment: MTT assay, proliferation of normal liver LO2 cells; format: cell-based, human
Experimental: Given the strong growth inhibitory activity of 8h in vitro, it was profiled for antitumor selectivity by examining its inhibitory effects on the growth of SMMC-7721 cells and LO2 cells (human hepatocellular normal cells).
Figure 3 (A) Inhibitory effects of 8h on the proliferation of SMMC-7721 and LO2 cells. Cells were incubated with the indicated concentrations of 8h for 48 h. Cell proliferation was assessed using the MTT assay. Data are means ± SD of the inhibition (%) from three independent experiments. (B) Inhibitory effects of 5h, 8h, and SA or the vehicle control against SMMC-7721 and LO2 cells. SMMC-7721 and LO2 cells were incubated with the indicated compounds at 25 μM for 48 h, and cell proliferation was assessed by the MTT assay. Data are means ± SD of the inhibition (%) from three independent experiments. *P < 0.01 versus control of SMMC-7721, ^#P < 0.01 inhibitory effects of 8h in SMMC-7721 versus LO2 cells.
as §1

[1] = tested on: Bax, Bcl-2, caspase-3, PARP in SMMC-7721 cells; experiment: Western blot assay of apoptosis-related proteins; format: cell-based, human
Experimental: Next, to investigate the preliminarily molecular mechanisms underlying the cell apoptosis profiles in 8h-treated cells, we conducted western blot analysis to examine the expression of apoptosis proteins in SMMC-7721 cells. It is well known that Bcl-2 and Bax are anti-apoptotic or pro-apoptotic regulator proteins, respectively, and caspase-3 is the execution factor of apoptosis. In addition, PARP is one of several known cellular substrates for caspase-3 and the cleavage of PARP by caspase-3 is considered to be a hallmark of apoptosis.
Figure 5 Effect of 8h on the expression of apoptosis-related proteins in SMMC-7721 cells. (A) The expression of Bax, Bcl2, caspase 3 and β-actin was examined by western blot analysis. SMMC-7721 cells were incubated with, or without, 8h at the indicated concentrations for 48 h and the levels of protein expression were detected using specific antibodies, and β-actin was used as the control. Data shown are representative images of each protein for three separate experiments. (B) Quantitative analysis: the relative levels of each protein compared to control β-actin were determined by densimetric scanning. Data are expressed as means ± SD from three separate experiments. *P < 0.01 vs control.
The mechanisms of the cell apoptosis were determined by western blot assay. SMMC-7721 cells at 1.5 × 10^5/mL were treated with 3.5, 7.0, or 14 μM 8h or vehicle control for […]. After harvested and lyzed, the cell lysates (50 μg/lane) were separated by SDS-PAGE (12% gel) and transferred onto nitrocellulose membranes. After blocked with 5% fat-free milk, the target proteins were probed with anti-Bcl-2, anti-Bax, anti-caspase-3, anti-PARP, and anti-β-actin antibodies (Cell Signaling, Boston), respectively. The bound antibodies were detected by HRP-conjugated second antibodies and visualized using the enhanced chemiluminescent reagent.

[2] = western blot, 3.5, 7.0 or 14 μM

For `Cc1nc(C(=O)NCCCCCNC(=O)c2ccccc2O)cc2c1[nH]c1ccccc12` [8h, N-(5-(2-Hydroxybenzamido)pentyl)-1-methyl-9H-pyrido[3,4-b]indole-3-carboxamide], the IC50 (EJ cells) was 7.89 µM, the “Inhibitory effect on LO2 cells” value (LO2 cells; 25 μM, 48 h, MTT assay) was “little inhibitory effects” and the IC50 (LO2 cells; L02, MTT assay, 48 h, LO2 human hepatocellular normal cells, read-out: IC50 against liver normal LO2 cells) was 55.2 µM. For the same molecule, the “Selectivity: IC50 on SMMC-7721 fold lower than against LO2 cells” value (LO2 cells; SMMC-7721 vs LO2) was 9 fold, the “Growth inhibitory activity on non-cancer LO2 cells” value (LO2 cells; concentrations up to 25 μM, 48 h, MTT) was “no apparent growth inhibitory activity” and the “Expression of Bcl-2” value [1, 2] was “dramatically reduced in a concentration-dependent manner”. The “Protein levels of Bax” value [1, 2] was “significantly increased” and the “Cleavage of PARP and caspase-3” value ([1]; western blot, vs control group) was “more significant cleavage of both PARP and caspase-3 than the control group”.
